Measured values reported in patent US20230233500A1, “Gasdermin D (GSDMD) Succination for the Treatment of Inflammatory Disease” (University of Massachusetts, priority 2020, published 2023).
Counter-ions that a name gives are not always drawn.

Experiments:
[1] = tested on: LPS septic shock in WT mice; assay: LPS septic shock model; type: in vivo, mouse
Experimental: FIGS. 1A-L. Fumarate inhibits pyroptosis. Bone marrow-derived macrophages (BMDMs) were treated as indicated and LDH, IL-1β or TNF-α measured by ELISA (A-C), GSDMD/β-actin by immunoblotting (D) or permeabilization of cells to SYTOX orange (E-F). GSDMD oligomerization in native and reduced cell lysates treated as above (G). Timecourse of permeabilization to SYTOX orange or GSDMD-N formation in cells treated as indicated (H-I). Survival rates of WT mice after 50 mg/kg of LPS (n−10) or LPS+fumarate (n=9) (J). Levels of IL-1β or TNF-α from serum of WT mice at 5 hours post-intraperitoneal injection with 5 mg/kg LPS (n=6) or control PBS (n=3) (K, L). A, B, C, I and are pooled from three independent experiments. D, E, F, G, H and I are representative from three independent experiments. J, K, L data points indicate individual mice. *, P<0.05, **, P<0.01; ***, P<0.001; ****, P<0.0001) (J, Mantel Cox survival analysis; A-C, K Two-way ANOVA). Error bars show means±SEM.
FIGS. 8A-B. Fumarate inhibits pyroptosis in vivo. (A-B) LC/MS Fumarate quantification in splenocytes (A) and IL-1 ELISA analysis (B) in serum from WT C57/BL6 mice administered FHIN2 (50 mg/kg) by IP injection followed by LPS (10 mg/kg) by IP injection for 5 hours. Data points indicative of individual mice. **, P<0.01 (Two-way ANOVA). Error bars show means±SEM.
Conditioned media or serum was collected as indicated and IL-1β or TNF-α, were quantified by sandwich ELISA (R&D Systems).
Mice aged 8-12 weeks were administered LPS 5 mg/kg by intraperitoneal injection. Serum was collected after 5 h for ELISA analysis. For survival studies, mice were administered LPS 50 mg/kg intraperitoneally and monitored every 12 h for up to 96 h.

BMDMs = assay: Pyroptosis in BMDMs after transfected LPS, Salmonella infection or poly (dA:dT); type: cell-based, mouse
Experimental: FIGS. 5A-G. Fumarate inhibits pyroptosis. (A) SYTOX Orange and Hoechst stained WT BMDMs treated with LPS for 2 hours, DMSO (vehicle) or fumarate (25 μM) for 1 hour and nigericin for 6 hours. (B) LDH assay conditioned medium from WT BMDMs treated with LPS for 3 hours, nigericin for the indicated times and DMSO (vehicle) or fumarate (25 μM) 15 minutes after each nigericin (10 μM) timepoint. (C) Immunoblot analysis of GSDMD in BMDMs treated as in […]. (D-E) LDH (D) and immunoblot analysis of GSDMD and β-actin in lysates (E) from WT BMDMs treated with DMSO (vehicle) or fumarate ([…]) for 1 hour followed by salmonella infection (MOI 10) for 6 hours. (F-G) LDH (F) and immunoblot analysis of GSDMD and β-actin in lysates (G) from WT BMDMs primed with LPS for 2 hours, followed by treatment with fumarate (25 μM) transfection with Poly (dA:dT) (1 μg). A, C, E, G are representative of 3 independent experiments. B, D, F are pooled data from 3 independent experiments. ***, P<0.001, ****, P<0.00001 (Two-way ANOVA). Error bars show means±SEM.
(§1) Cells were plated, treated and incubated in phenol red free medium. Following treatment medium was collected and assessed for LDH release using the CytoTox96 non-radioactive cytotoxicity assay (Promega) as per manufacturer's instructions. Kinetic cell death assays were performed using SytoxOrange and the Biotek Cytation5.
Cells were primed with LPS (100 ng/ml) from Escherichia coli serotype EH100 (ra) TLRgrade for 3 h followed by stimulation with the inflammasome activator Nigericin ([…]) for 1 h. For noncanonical inflammasome activation, cells were primed with […] Pam3CSK4 (Invivogen) for 2 h, followed by transfection of LPS (2 μg/ml) using Lipofectamine 2000 for 16 hours.

[2] = tested on: GSDMD-deficient BMDMs (GSDME); assay: Cell death in GSDMD-deficient BMDMs; type: cell-based, mouse
From the text: FIGS. 3A-J. Fumarate targets GSDMD and Gasdermin E (GSDME). Kinetic cell death of WT and Gsdmd-BMDMs (A) or WT/GSDMD^−/− THP1 cells (B) treated as indicated. LDH and IL-1β release from WT and Gsdmd^−/− BMDMs (C-D). Immunoblot of GSDMD and GSDME in native and reduced cell lysates from BMDMs (E). Immunoblot of GSDME in streptavidin pulldown from clicked lysates (F). Representative Mass spectra of succinated GSDME (G-H). Immunoblot analysis of GSDMD and GSDME from WT and Gsdmcd^−/− BMDMs (I). A, B representative of three independent experiments. C, D, I pooled data from three independent experiments. E, F, J representative images from 3 independent experiments. ***, P<0.0001, […] (Two-way ANOVA). Error bars show means±SEM.
FIGS. 13A-B. Fumarate inhibits GSDMD and GSDME comparably. (A) Kinetic cell death data of WT (left-panel) and GSDMD−/− (right-panel) primary BMDMs with LPS for 2 hours, DMSO (vehicle) or fumarate (0-50 μM) followed by nigericin (10 μM) for 6 hours. (B) Immunoblot analysis of GSDMD, GSDME and -actin in cell lysates from WT and GSDMD−/− BMDMs treated as in (A).
as §1

COC(=O)/C=C/C(=O)OC [Fumarate, Dimethyl fumarate]
serum IL-1β levels ([1]; 5 hours after ip LPS 5 mg/kg): reduced
serum TNF-α levels ([1]; 5 hours after ip LPS 5 mg/kg): not
survival ([1]; lethal dose LPS 50 mg/kg, single dose of fumarate): increased survival
inhibitory effect on pyroptosis after poly (dA:dT) (BMDMs; LPS primed 2 hours, fumarate 25 μM, LDH and GSDMD immunoblot): inhibitory effect
inhibitory effect on pyroptosis after Salmonella infection (BMDMs; fumarate 25 μM 1 hour, MOI 10, 6 hours, LDH and GSDMD immunoblot): inhibitory effect
inhibitory effect on pyroptosis after transfected LPS (BMDMs; noncanonical inflammasome): inhibitory effect
cell death (GSDMD-independent, GSDME-dependent) ([2]; GSDMD-deficient BMDMs, kinetic): inhibited cell death
GSDME processing / generation of GSDME-N ([2]; GSDMD-deficient cells, immunoblot): blocked
inhibition of GSDMD-driven versus GSDME-driven cell death ([2]; WT and GSDMD-/- BMDMs, fumarate 0-50 μM, nigericin 6 hours): comparably
